Here are results for 6 molecules from US5583020A, “Permeability enhancers for negatively charged polynucleotides” (Ribozyme Pharmaceuticals, Inc., priority 1993, dated 1996).

Read-outs that look alike come from different tables or passages of the source.

Data set [1] is described as follows: Diffusion of 32P-ribozyme across a liposome membrane (liposome-associated radioactivity). The data set is classed as in vitro ADME. An excerpt:
The ribozyme was a 36 mer containing five 2'-O-methyl riboses at the 5' end and the 3' end. The ratio of permeability enhancer molecules per mole of phosphate was about 20:1.

For data set [2] the following is noted: not told.
Protocol: Specifically, twenty μg of ^32 P radiolabeled ribozyme (1.68×10^-9 moles) was incubated with 1.2×10^-6 moles of permeability enhancer in 50 μl of water to give a pH of about 4. Incubation was carried out at 25° C. for 15 minutes. After the incubation, 1×10^-11 moles of dioleoylphosphatidylcholine liposomes was added to the 50 μl solution. The solution was diluted to 100 μl with 20 mM HEPES (pH 7.4) and centrifuged in a microfuge for 5 minutes to pellet the liposomes. The supernatant was removed and the lipid pellets were washed with 100 μl of 20 mM HEPES (pH 7.4). The lipid pellets were solubilized in 1% Triton X-100 and the amount of radioactivity associated with the lipid pellets was measured. The amount of associated radioactivity reflects the amount of diffusion across the liposome membrane.
A titration of the permeability enhancer to ribozyme was performed by holding the amount of ribozyme constant and increasing the molar charge ratio of the permeability enhancer (aminocaprylic acid) to ribozyme. The experiment was carried out as described above using different amounts of enhancer.
The subject of a further data set is HeLa cells. In words: Diffusion of 32P-ribozyme into HeLa cells (cell associated radioactivity). The data set is classed as cell-based. Conditions: 20 molecules enhancer per mole of ribozyme phosphate; pH about 4, diluted in DMEM without serum; 1 hour at 37° C., 5% CO2. The method, then:
This example illustrates the ability of an enhancer to facilitate the diffusion of a ribozyme into HeLa cells. […] The sample was diluted up to 1 ml with DMEM media containing no serum and added to HeLa cells. A control was run containing ^32 P-ribozyme without enhancer. Cells were incubated for 1 hour at 37° C. in 5% CO2. The cells were washed 3 times with serum free media and solubilized with 0.5 ml of 1% triton.

Setting [3] is: ratio of permeability enhancer per mole of phosphate about 20:1, pH about 4, 25° C., 15 minutes, 32P ribozyme (36 mer).

With `NCCCC(=O)O` [Aminobutyric Acid], the “% Liposome Associated” value in data set [1] was determined as 0.53%. `NCCCCCC(=O)O` [Aminocaproic Acid]: the “% Liposome Associated” value in data set [1] (setting [3]) was 0.70%. Turning to `NCCCCCCCC(=O)O` [Aminocaprylic Acid], in data set [1] (setting [3]), the “% Liposome Associated” value came to 9.54%. Moreover, the “degree of membrane association (in words)” value in data set [1] (ribozyme, enhancer to phosphate about 20:1) was “highest degree of membrane association”. In addition, the “membrane association on increasing the ratio of enhancer to ribozyme (in words)” value in data set [2] is “concomitant increase in membrane association”. For the same molecule, the “amount of cell associated radioactivity, enhancer:ribozyme versus ribozyme alone” value in the data set with HeLa cells is on record as 3 fold. For the molecule `O=C(O)/C=C/c1c[nH]cn1` [Urocanic Acid], the “% Liposome Associated” value in data set [1] was found to be 0.95%.

As to `NCC(=O)O` [glycine], the “% Liposome Associated” value in data set [1] (setting [3]) is reported as 0.55%.

Take `Nc1cccc(C(=O)O)c1` [m-Aminobenzoic Acid]: the “% Liposome Associated” value in data set [1] was found to be 2.54%.
